Test results reported in ChEMBL document CHEMBL5223111, “Total synthesis and antibacterial evaluation of Empetroxepins A and B and related analogs” (2022).
≈ marks a conversion by molar mass, not a printed value.

Columns and labels:
Assay type in all cases: functional
[1] = system: Staphylococcus aureus; assay: Antibacterial activity against Staphylococcus aureus assessed as reduction in pathogen growth
[2] = system: Bacillus subtilis; assay: Antibacterial activity against Bacillus subtilis assessed as reduction in pathogen growth
[3] = system: Escherichia coli; assay: Antibacterial activity against Escherichia coli assessed as reduction in pathogen growth

SMILES	MIC [1] [µg/mL]	MIC [2] [µg/mL]	MIC [3] [µg/mL]
CCN(CC)c1ccc2c(c1)CCc1cc(OC)c(OC)c(OC)c1O2	> 256	> 256	> 256
COc1c(O)cc2c(c1O)Oc1ccc(NCc3ccccc3)cc1CC2	64 (≈ 176 µM)	64 (≈ 176 µM)	> 256
Oc1cc2c(c(O)c1O)Oc1ccc(Cl)cc1CC2	64 (≈ 230 µM)	128 (≈ 459 µM)	> 256
COc1cc2c(c(OC)c1OC)Oc1c(Cl)cccc1CC2	> 256	> 256	> 256
CCN(CC)c1ccc2c(c1)CCc1cc(O)c(OC)c(O)c1O2	64 (≈ 194 µM)	64 (≈ 194 µM)	> 256
COc1cc2c(c(OC)c1OC)Oc1ccc(Br)cc1CC2	> 256	> 256	> 256
Oc1cc2c(c(O)c1O)Oc1ccccc1CC2	64 (≈ 262 µM)	128 (≈ 524 µM)	> 256
COc1c(O)cc2c(c1O)Oc1ccc(N3CCOCC3)cc1CC2	256 (≈ 746 µM)	256 (≈ 746 µM)	> 256
COc1cc2c(c(OC)c1OC)Oc1ccc(N3CCCCC3)cc1CC2	> 256	> 256	> 256
COc1c(O)cc2c(c1OC)Oc1ccccc1CC2	256 (≈ 940 µM)	256 (≈ 940 µM)	> 256
COc1cc2c(c(OC)c1OC)Oc1ccc(Nc3ccccc3)cc1CC2	> 256	> 256	> 256
Cc1ccc2c(c1)CCc1cc(O)c(O)c(O)c1O2	16 (≈ 61.9 µM)	32 (≈ 124 µM)	256 (≈ 991 µM)
COc1c(O)cc2c(c1O)Oc1ccc(Br)cc1CC2	16 (≈ 47.5 µM)	16 (≈ 47.5 µM)	> 256
Oc1cc2c(c(O)c1O)Oc1ccc(Br)cc1CC2	16 (≈ 49.5 µM)	8 (≈ 24.8 µM)	> 256
COc1cc2c(c(OC)c1OC)Oc1ccc(N)cc1CC2	> 256	> 256	> 256
COc1cc2c(c(O)c1OC)Oc1ccc(Br)cc1CC2	32 (≈ 91.1 µM)	32 (≈ 91.1 µM)	> 256
COc1c(O)cc2c(c1O)Oc1ccc(N3CCCCC3)cc1CC2	128 (≈ 375 µM)	64 (≈ 187 µM)	> 256
COc1cc2c(c(OC)c1OC)Oc1ccccc1CC2	> 256	> 256	> 256
COc1c(O)cc2c(c1O)Oc1ccc(-c3ccccc3)cc1CC2	16 (≈ 47.9 µM)	16 (≈ 47.9 µM)	> 256

SMILES	MIC [1] [µg/mL]	MIC [2] [µg/mL]	MIC [3] [µg/mL]
Oc1cc2c(c(O)c1O)Oc1c(Cl)cccc1CC2	32 (≈ 115 µM)	32 (≈ 115 µM)	> 256
Oc1cc2c(c(O)c1O)Oc1cccc(Cl)c1CC2	8 (≈ 28.7 µM)	16 (≈ 57.4 µM)	256 (≈ 919 µM)
O=C(N[C@H](CO)[C@H](O)c1ccc([N+](=O)[O-])cc1)C(Cl)Cl [CHLORAMPHENICOL]	8 (≈ 24.8 µM)	4 (≈ 12.4 µM)	8 (≈ 24.8 µM)
COc1c(O)cc2c(c1OC)Oc1ccc(Br)cc1CC2	16 (≈ 45.6 µM)	16 (≈ 45.6 µM)	> 256
COc1cc2c(c(OC)c1OC)Oc1ccc(-c3ccccc3)cc1CC2	> 256	> 256	> 256
COc1ccc2c(c1)CCc1cc(O)c(OC)c(O)c1O2	128 (≈ 444 µM)	128 (≈ 444 µM)	> 256
COc1cc2c(c(OC)c1OC)Oc1ccc(N3CCOCC3)cc1CC2	> 256	> 256	> 256
COC(=O)c1ccccc1-c1ccc2c(c1)CCc1cc(OC)c(OC)c(OC)c1O2	> 256	> 256	> 256
COc1cc2c(c(OC)c1OC)Oc1cccc(Cl)c1CC2	> 256	> 256	> 256
COc1cc2c(c(O)c1OC)Oc1ccccc1CC2	> 256	256 (≈ 940 µM)	> 256
COc1c(O)cc2c(c1O)Oc1ccc(Nc3ccccc3)cc1CC2	32 (≈ 91.6 µM)	32 (≈ 91.6 µM)	> 256
COc1ccc2c(c1)CCc1cc(OC)c(OC)c(OC)c1O2	> 256	> 256	> 256
COc1c(O)cc2c(c1O)Oc1ccc(O)cc1CC2	256 (≈ 933 µM)	256 (≈ 933 µM)	> 256
COc1cc2c(c(OC)c1OC)Oc1ccc(Cl)cc1CC2	> 256	> 256	> 256
COc1ccc(-c2ccc3c(c2)CCc2cc(OC)c(OC)c(OC)c2O3)cc1	> 256	> 256	> 256
COc1c(O)cc2c(c1O)Oc1ccccc1CC2	256 (≈ 991 µM)	256 (≈ 991 µM)	> 256
COc1cc2c(c(OC)c1OC)Oc1ccc(NCc3ccccc3)cc1CC2	> 256	> 256	> 256
COc1cc2c(c(OC)c1OC)Oc1ccc(C)cc1CC2	> 256	> 256	> 256
